Test results as given in US11840686B2, “Modulation of prekallikrein (PKK) expression” (Ionis Pharmaceuticals, Inc., priority 2013, dated 2023).
Strand notation (5' to 3'): a small letter for the sugar, then the base; units joined by * are phosphorothioate-linked, units joined directly phosphodiester-linked; [ ] holds rarer units or linkages, { } end groups; capitals alone tell only the bases. e = 2'-O-(2-methoxyethyl) (MOE); [5mC] = 5-methylcytosine; d = 2'-deoxy (DNA)

System: human PKK mRNA
Assay: Antisense inhibition of human PKK mRNA in HepaRG cells, 5,000 nM (Example 2)
Format: cell-based
In short: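 qRT-PCR (RTS3454) read-out, RIBOGREEN-normalized; % inhibition vs untreated cells. HepaRG, 20,000 cells/well, electroporation, 5,000 nM ASO, ~24 h.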

[1] = HepaRG cells, 5,000 nM antisense oligonucleotide, 5-10-5 gapmers, Table 17
[2] = HepaRG cells, electroporation with 5,000 nM antisense oligonucleotide, approximately 24 hours, PKK mRNA by RT-PCR (RTS3454), relative to untreated control cells, Table 5 experiment

| Substance | % inhibition [1] | % inhibition [2] |
| --- | --- | --- |
| 547035 (eT*eG*eG*eT*e[5mC]*d[5mC]*d[5mC]*dA*dA*dA*dT*dT*dG*dG*dA*eG*eT*eG*e[5mC]*eA; antisense) [compound 547035] | 40% |  |
| 547039 (eT*e[5mC]*eT*e[5mC]*eT*dA*dT*dA*d[5mC]*dA*dG*d[5mC]*dT*dG*dG*eG*e[5mC]*eA*e[5mC]*eA; antisense) [compound 547039] | 0% |  |
| 547049 (e[5mC]*eA*e[5mC]*eT*eT*d[5mC]*d[5mC]*d[5mC]*dA*dG*d[5mC]*dA*dA*d[5mC]*d[5mC]*e[5mC]*eT*e[5mC]*eA*e[5mC]; antisense) [compound 547049] | 20% |  |
| 547055 (eG*e[5mC]*eT*e[5mC]*e[5mC]*dT*dG*dG*d[5mC]*dA*dG*d[5mC]*dA*dA*dT*eG*eA*e[5mC]*e[5mC]*e[5mC]; antisense) [compound 547055] | 70% |  |
| 547059 (eG*eG*eG*eT*eA*dT*d[5mC]*dT*dT*d[5mC]*dA*d[5mC]*dT*dG*dT*eT*e[5mC]*e[5mC]*eA*eG; antisense) [compound 547059] | 12% |  |
| 547063 (e[5mC]*eG*eT*e[5mC]*eA*dT*dG*d[5mC]*dT*dT*dA*d[5mC]*d[5mC]*dT*dT*eT*e[5mC]*eT*e[5mC]*e[5mC]; antisense) [compound 547063] | 23% |  |
| 547069 (eG*e[5mC]*e[5mC]*e[5mC]*eT*d[5mC]*d[5mC]*dG*dA*dG*d[5mC]*dT*dT*dT*dG*eG*e[5mC]*eA*eA*e[5mC]; antisense) [compound 547069] | 35% |  |
| 547071 (eG*e[5mC]*eA*eG*e[5mC]*d[5mC]*d[5mC]*d[5mC]*d[5mC]*d[5mC]*dA*dG*dA*dA*dA*eT*e[5mC]*e[5mC]*e[5mC]*eA; antisense) [compound 547071] | 27% |  |
| 547076 (eT*e[5mC]*eT*e[5mC]*eA*dA*dG*d[5mC]*dA*dG*d[5mC]*d[5mC]*dT*dA*dT*eT*eG*eT*eG*eT; antisense) [compound 547076] | 14% |  |
| 547080 (eG*eT*eG*e[5mC]*eA*dA*dG*dA*d[5mC]*d[5mC]*dT*dT*dG*d[5mC]*dT*eT*eG*e[5mC]*e[5mC]*eA; antisense) [compound 547080] | 54% |  |
| 547081 (e[5mC]*eT*eG*eT*eA*dG*dT*d[5mC]*d[5mC]*dA*d[5mC]*dT*dA*d[5mC]*dA*e[5mC]*eA*eG*e[5mC]*eA; antisense) [compound 547081] | 83% |  |
| 547082 (eT*e[5mC]*eT*e[5mC]*e[5mC]*d[5mC]*dT*dG*dA*dG*dT*d[5mC]*dA*d[5mC]*dA*eG*eT*eG*eG*eA; antisense) [compound 547082] | 64% |  |
| 547085 (e[5mC]*e[5mC]*eA*eG*eG*dT*dG*d[5mC]*dA*dG*d[5mC]*dA*d[5mC]*dG*dG*eA*eG*eA*eG*eG; antisense) [compound 547085] | 44% |  |
| 547269 (eA*eA*eT*eG*eA*dA*d[5mC]*dG*dG*dT*d[5mC]*dT*dT*d[5mC]*dA*eA*eG*e[5mC]*eT*eG; antisense) [compound 547269] |  | 56% |
| 547270 (eA*eA*eA*eA*eT*dG*dA*dA*d[5mC]*dG*dG*dT*d[5mC]*dT*dT*e[5mC]*eA*eA*eG*e[5mC]; antisense) [compound 547270] |  | 68% |
| 547271 (eT*eT*eA*eA*eA*dA*dA*dT*dG*dA*dA*d[5mC]*dG*dG*dT*e[5mC]*eT*eT*e[5mC]*eA; antisense) [compound 547271] |  | 60% |
| 547272 (e[5mC]*eA*e[5mC]*eT*eT*dA*dA*dA*dA*dA*dT*dG*dA*dA*d[5mC]*eG*eG*eT*e[5mC]*eT; antisense) [compound 547272] |  | 82% |
| 547274 (antisense eG*eA*eG*eG*eT*dG*dA*dG*dT*d[5mC]*dT*d[5mC]*dT*dT*dG*eT*e[5mC]*eA*e[5mC]*eT) [compound 547274] |  | 70% |
| 547278 (antisense eA*e[5mC]*eA*e[5mC]*eA*dA*dT*dT*dG*d[5mC]*dT*dT*d[5mC]*dT*dT*eG*eG*eA*eG*eG) [compound 547278] |  | 70% |
| 547279 (antisense eA*eA*eA*eA*e[5mC]*dA*d[5mC]*dA*dA*dT*dT*dG*d[5mC]*dT*dT*e[5mC]*eT*eT*eG*eG) [compound 547279] |  | 69% |
| 547280 (antisense eG*eA*eA*eA*eA*d[5mC]*dA*d[5mC]*dA*dA*dT*dT*dG*d[5mC]*dT*eT*e[5mC]*eT*eT*eG) [compound 547280] |  | 47% |
| 547281 (antisense eT*eT*eG*e[5mC]*eT*dT*dG*dA*dA*dT*dA*dA*dA*dA*dT*e[5mC]*eA*eT*eT*e[5mC]) [compound 547281] |  | 41% |
| 547282 (antisense eT*eT*eG*e[5mC]*eT*dT*dG*d[5mC]*dT*dT*dG*dA*dA*dT*dA*eA*eA*eA*eT*e[5mC]) [compound 547282] |  | 53% |
| 547283 (antisense eA*eG*eT*eT*eG*d[5mC]*dT*dT*dG*d[5mC]*dT*dT*dG*dA*dA*eT*eA*eA*eA*eA) [compound 547283] |  | 67% |

| Substance | % inhibition [1] | % inhibition [2] |
| --- | --- | --- |
| 547284 (antisense eA*eA*eA*eT*eG*dA*dA*dA*dT*dA*dA*dG*dT*dT*dG*e[5mC]*eT*eT*eG*e[5mC]) [compound 547284] |  | 26% |
| 547285 (antisense eA*e[5mC]*eT*eG*eT*dA*dG*d[5mC]*dA*dA*dA*d[5mC]*dA*dA*dG*eG*eA*eA*eA*eT) [compound 547285] |  | 51% |
| 547286 (antisense eA*eG*eA*e[5mC]*eA*dT*d[5mC]*d[5mC]*dA*d[5mC]*dA*dG*dG*dA*dA*eA*e[5mC]*eT*eG*eT) [compound 547286] |  | 68% |
| 547287 (antisense eG*eT*e[5mC]*eA*eG*dA*d[5mC]*dA*dT*d[5mC]*d[5mC]*dA*d[5mC]*dA*dG*eG*eA*eA*eA*e[5mC]) [compound 547287] |  | 69% |
| 547289 (antisense eT*eT*e[5mC]*eA*eT*dA*dG*dA*dG*dT*dT*dG*dA*dG*dT*e[5mC]*eA*eG*eA*e[5mC]) [compound 547289] |  | 74% |
| 547290 (antisense eA*eG*e[5mC]*eT*eA*d[5mC]*dA*dT*d[5mC]*d[5mC]*d[5mC]*d[5mC]*dA*d[5mC]*d[5mC]*eT*e[5mC]*eT*eG*eA) [compound 547290] |  | 76% |
| 547291 (antisense eA*eT*eG*eG*eA*dA*dG*d[5mC]*dT*dA*d[5mC]*dA*dT*d[5mC]*d[5mC]*e[5mC]*e[5mC]*eA*e[5mC]*e[5mC]) [compound 547291] |  | 74% |
| 547292 (antisense eT*eA*e[5mC]*eA*eT*dG*dG*dA*dA*dG*d[5mC]*dT*dA*d[5mC]*dA*eT*e[5mC]*e[5mC]*e[5mC]*e[5mC]) [compound 547292] |  | 60% |
| 547295 (antisense eA*e[5mC]*e[5mC]*eT*e[5mC]*dA*dT*d[5mC]*dT*dG*dG*d[5mC]*dA*dG*dT*eA*eT*eT*eG*eG) [compound 547295] |  | 88% |
| 547296 (antisense eT*eG*e[5mC]*eA*e[5mC]*d[5mC]*dT*d[5mC]*dA*dT*d[5mC]*dT*dG*dG*d[5mC]*eA*eG*eT*eA*eT) [compound 547296] |  | 72% |
| 547297 (antisense eT*eG*eG*eA*eA*dT*dG*dT*dG*d[5mC]*dA*d[5mC]*d[5mC]*dT*d[5mC]*eA*eT*e[5mC]*eT*eG) [compound 547297] |  | 84% |
| 547299 (antisense eA*eA*eA*e[5mC]*eT*dG*dA*dA*dT*dA*dG*d[5mC]*dA*dA*dA*e[5mC]*eA*e[5mC]*e[5mC]*eT) [compound 547299] |  | 76% |
| 547300 (antisense eG*eA*eA*e[5mC]*eT*dT*dG*d[5mC]*dT*dG*dG*dA*dA*dG*dA*eA*eA*eA*e[5mC]*eT) [compound 547300] |  | 37% |
| 547301 (antisense eT*e[5mC]*eA*eT*eT*dG*dA*dT*dT*dG*dA*dA*d[5mC]*dT*dT*eG*e[5mC]*eT*eG*eG) [compound 547301] |  | 80% |
| 547302 (antisense e[5mC]*e[5mC]*eA*eT*eG*dT*d[5mC]*dA*dT*dT*dG*dA*dT*dT*dG*eA*eA*e[5mC]*eT*eT) [compound 547302] |  | 58% |
| 547303 (antisense eT*eT*e[5mC]*eT*e[5mC]*d[5mC]*dA*dT*dG*dT*d[5mC]*dA*dT*dT*dG*eA*eT*eT*eG*eA) [compound 547303] |  | 72% |
| 547304 (antisense e[5mC]*eT*eT*eT*eT*d[5mC]*dT*d[5mC]*d[5mC]*dA*dT*dG*dT*d[5mC]*dA*eT*eT*eG*eA*eT) [compound 547304] |  | 71% |
| 547305 (antisense eA*e[5mC]*e[5mC]*eA*eA*dA*d[5mC]*d[5mC]*dT*dT*dT*dT*d[5mC]*dT*d[5mC]*e[5mC]*eA*eT*eG*eT) [compound 547305] |  | 47% |
| 547306 (antisense eA*eG*e[5mC]*eA*eA*d[5mC]*d[5mC]*dA*dA*dA*d[5mC]*d[5mC]*dT*dT*dT*eT*e[5mC]*eT*e[5mC]*e[5mC]) [compound 547306] |  | 62% |
| 547307 (antisense eG*eA*eA*eG*e[5mC]*dA*dA*d[5mC]*d[5mC]*dA*dA*dA*d[5mC]*d[5mC]*dT*eT*eT*eT*e[5mC]*eT) [compound 547307] |  | 58% |
| 547308 (antisense eT*e[5mC]*eA*eA*eG*dA*dA*dG*d[5mC]*dA*dA*d[5mC]*d[5mC]*dA*dA*eA*e[5mC]*e[5mC]*eT*eT) [compound 547308] |  | 66% |
| 547309 (antisense e[5mC]*eT*eT*eT*e[5mC]*dA*dA*dG*dA*dA*dG*d[5mC]*dA*dA*d[5mC]*e[5mC]*eA*eA*eA*e[5mC]) [compound 547309] |  | 71% |
| 547310 (antisense eA*eT*e[5mC]*eT*eT*dT*d[5mC]*dA*dA*dG*dA*dA*dG*d[5mC]*dA*eA*e[5mC]*e[5mC]*eA*eA) [compound 547310] |  | 81% |
| 547311 (antisense e[5mC]*eA*e[5mC]*eT*eA*dT*d[5mC]*dT*dT*dT*d[5mC]*dA*dA*dG*dA*eA*eG*e[5mC]*eA*eA) [compound 547311] |  | 71% |
